Laboratory results as given in US9546158B2, “2,5-substituted pyrimidines” (Grünenthal GmbH, priority 2014, dated 2017).

Assays:
[1] = molecular target: T1, human PDE4B1 (Homo sapiens, UniProt Q07343); assay: cAMP HTRF assay to determine the activity of hPDE4B1; type: biochemical; conditions: test substrate concentration of 1 μM, read-out: Inhibition of PDE4B, Inhibition in %
T1 construct: host or cells: Sf9 cells
Description: cAMP HTRF® Assay to Determine the Activity of hPDE4B1
The inhibiting effect of the compounds on the enzyme activity of human PDE4B1 was measured by the quantification of 5′-adenosine monophosphate (5′-AMP), which is formed from 3′,5′-cyclic adenosine monophosphate (cAMP). Human recombinant enzyme, expressed in Sf9 cells, and the HTRF (homogeneous time-resolved fluorescence) detection method were used in the assay.
The test compound or water (control) was mixed with the human recombinant PDE4B1 enzyme (4.8 U) in a buffer consisting of 44.4 mM tris-HCl, 5.28 mM MgCl2, 2.64 mM DTT and 0.044% Tween 20 (pH 7.8). After adding the cAMP enzyme substrate (final concentration 40 nM), the mixture was incubated for 30 minutes at room temperature. Then a fluorescence acceptor (Dye2 marked with cAMP), a fluorescence donor (anti-cAMP antibody marked with a europium cryptate) and the non-specific phosphodiesterase inhibitor IBMX (3-isobutyl-1-methylxanthine; final concentration 1 mM) were added. After 60 minutes the fluorescence transfer, which correlates with the amount of remaining cAMP, was measured with a microplate reader (Rubystar, BMG) at λex=337 nm, λem=620 nm and λem=665 nm. The enzyme activity was calculated from the quotient formed from the measured signal at 665 nm and that at 620 nm. The result was expressed as the percentage inhibition of enzyme activity of the control (without PDE4 inhibitor). The enzyme was omitted for measurement of the basal control. IC50 values (IC50=concentration causing a half-maximal inhibition of control specific activity) were derived from dose response measurements with eight different concentrations (n=2; N=1-3).
Literature: N. Saldou et al., Comparison of recombinant human PDE4 isoforms: interaction with substrate and inhibitors, Cell. Signal. Vol. 10, No. 6, 427-440, 1998

[2] = molecular target: T1, human PDE4B1; assay: TR-FRET assay using the LANCE Ultra cAMP kit to determine the activity of hPDE4B1; type: biochemical; conditions: test substrate concentration of 10 μM, read-out: Inhibition of PDE4B, Inhibition in %
From the text: TR-FRET Assay Using the LANCE® Ultra cAMP Kit to Determine the Activity of hPDE4B1
The effects of the compounds on the activity of the human PDE4B1 was quantified by measuring the production of 5′AMP from cAMP using a human recombinant enzyme expressed in Sf9 cells and the LANCE® Ultra cAMP kit, a TR-FRET detection method from PerkinElmer. The human PDE4B1 enzyme was purchased from SignalChem Lifesciences (Catalog #P92-31BG, Lot #H296-2).
The test compound, reference compound or water (control) was mixed with the enzyme (0.96 U) in a reaction buffer containing 50 mM Tris-HCl, 50 mM MgCl2 and 5 mM DTT (pH 8.5). Thereafter, the reaction was initiated by addition of 500 nM cAMP (substrate) and the mixture was incubated for 30 minutes at room temperature. For control basal measurements, the enzyme was omitted from the reaction mixture. After 30 minutes, the reaction was stopped and diluted by a factor of 100 with the reaction buffer supplemented with 500 μM IBMX. The fluorescence donor (europium chelate-labeled cAMP) and the fluorescence acceptor (anti-cAMP antibody labeled with the ULight™ dye) were then added together with 500 μM IBMX to a 10 μl aliquot. After 60 minutes, the fluorescence transfer corresponding to the amount of residual cAMP was measured at λex=337 nm, λem=620 nm and λem=665 nm using a microplate reader (PHERAstar, BMG). The enzyme activity was determined by dividing the signal measured at 665 nm by that measured at 620 nm (ratio) multiplied by 10000. The results were expressed as percent inhibition of the control enzyme activity. IC50 values (IC50=concentration causing a half-maximal inhibition of control specific activity) were derived from dose response measurements with ten different concentrations (n=3; N=1-3).

T1 sequence (Q07343 whole entry): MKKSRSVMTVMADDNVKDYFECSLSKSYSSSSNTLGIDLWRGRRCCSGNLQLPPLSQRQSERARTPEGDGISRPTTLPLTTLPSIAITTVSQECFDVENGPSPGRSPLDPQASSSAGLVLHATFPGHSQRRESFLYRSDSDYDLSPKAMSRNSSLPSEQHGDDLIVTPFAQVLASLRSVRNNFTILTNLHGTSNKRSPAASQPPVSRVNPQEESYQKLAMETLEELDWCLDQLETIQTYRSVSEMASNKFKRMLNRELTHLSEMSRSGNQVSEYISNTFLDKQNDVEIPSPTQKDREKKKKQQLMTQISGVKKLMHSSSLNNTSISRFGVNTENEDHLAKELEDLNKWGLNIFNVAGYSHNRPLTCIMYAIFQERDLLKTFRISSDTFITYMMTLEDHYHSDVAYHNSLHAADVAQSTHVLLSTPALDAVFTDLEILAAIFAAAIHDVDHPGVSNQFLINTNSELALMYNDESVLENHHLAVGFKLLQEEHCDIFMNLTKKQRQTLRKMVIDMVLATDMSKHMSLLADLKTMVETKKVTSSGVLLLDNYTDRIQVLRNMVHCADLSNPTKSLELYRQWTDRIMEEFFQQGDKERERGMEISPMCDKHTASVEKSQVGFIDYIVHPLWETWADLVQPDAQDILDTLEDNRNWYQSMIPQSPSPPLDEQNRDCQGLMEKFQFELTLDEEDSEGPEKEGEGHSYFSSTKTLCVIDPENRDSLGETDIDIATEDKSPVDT

Compound: O=C(c1ccc2c(C3CC3)nn(-c3ncc(-c4ccccc4)cn3)c2c1)N1CCOCC1 [Compound No. 14, (3-Cyclopropyl-1-(5-phenylpyrimidin-2-yl)-1H-indazol-6-yl)(morpholino)-methanone]
- inhibition at 1 µM [1]: 92%
- melting point: 218 to 222 °C

Compound: O=C1CN(C(=O)c2ccc3c(C4CC4)nn(-c4ncc(-c5ccccc5)cn4)c3c2)CCN1 [Compound No. 15, 4-(3-Cyclopropyl-1-(5-phenylpyrimidin-2-yl)-1H-indazole-6-carbonyl)piperazin-2-one]
- inhibition at 1 µM [1]: 96%
- melting point: 175 to 179 °C

Compound: O=C1CN(C(=O)c2ccc3c(C4CC4)nn(-c4ncc(-c5ccccc5F)cn4)c3c2)CCN1 [Compound No. 16, 4-(3-Cyclopropyl-1-(5-(2-fluorophenyl)pyrimidin-2-yl)-1H-indazole-6-carbonyl)piperazin-2-one]
- inhibition at 1 µM [1]: 99%
- melting point: 252 to 255 °C

Compound: CN1CCN(C(=O)c2ccc3c(C4CC4)nn(-c4ncc(-c5ccccc5F)cn4)c3c2)CC1=O [Compound No. 17, 4-(3-Cyclopropyl-1-(5-(2-fluorophenyl)pyrimidin-2-yl)-1H-indazole-6-carbonyl)-1-methylpiperazin-2-one]
- inhibition at 1 µM [1]: 95%
- melting point: 217 to 221 °C

Compound: O=C(c1cc2c(cn1)c(C1CC1)nn2-c1ncc(-c2ccccc2F)cn1)N1CCOCC1 [Compound No. 29, (3-Cyclopropyl-1-(5-(2-fluorophenyl)pyrimidin-2-yl)-1H-pyrazolo[4,3-c]pyridin-6-yl)(morpholino)methanone]
- inhibition at 1 µM [1]: 73%
- melting point: 232 to 235 °C

Compound: O=C(c1ccc2c(C3CC3)nn(-c3ncc(-c4ccccn4)cn3)c2c1)N1CCOCC1 [Compound No. 30, (3-Cyclopropyl-1-(5-(pyridin-2-yl)pyrimidin-2-yl)-1H-indazol-6-yl)(morpholino)methanone]
- inhibition at 1 µM [1]: 96%
- melting point: 260 to 263 °C

Compound: CC(C)(O)c1nn(-c2ncc(-c3ccccc3F)cn2)c2cc(C(=O)N3CCOCC3)ccc12 [Compound No. 31]
- inhibition at 1 µM [1]: 102%
- melting point: 235 to 237 °C

Compound: CCOc1ccc(F)c(-c2cnc(-n3nc(C4CC4)c4ccc(C(=O)N(C)CC(N)=O)cc43)nc2)c1 [Compound No. 50, N-(2-Amino-2-oxoethyl)-3-cyclopropyl-1-(5-(5-ethoxy-2-fluorophenyl)pyrimidin-2-yl)-N-methyl-1H-indazole-6-carboxamide]
- inhibition at 10 µM [2]: 95%
- melting point: 228 to 231 °C

Compound: CCOc1ccc(F)c(-c2cnc(-n3nc(C4CC4)c4ccc(C(=O)N5CCOCC5)cc43)nc2)c1 [Compound No. 51, (3-Cyclopropyl-1-(5-(5-ethoxy-2-fluorophenyl)pyrimidin-2-yl)-1H-indazol-6-yl)(morpholino)methanone]
- inhibition at 10 µM [2]: 103%
- melting point: 155 to 158 °C

Compound: CC(O)c1ccc(F)c(-c2cnc(-n3nc(C4CC4)c4ccc(C(=O)N5CCOCC5)cc43)nc2)c1 (stereo not drawn) [Compound No. 52, (3-Cyclopropyl-1-(5-(2-fluoro-5-(1-hydroxyethyl)phenyl)pyrimidin-2-yl)-1H-indazol-6-yl)(morpholino)methanone]
- inhibition at 10 µM [2]: 117%
- melting point: 256 to 260 °C

Compound: CC(O)c1ccc(F)c(-c2cnc(-n3nc(C4CC4)c4ccc(C(=O)N(C)CC(N)=O)cc43)nc2)c1 (stereo not drawn) [Compound No. 53, N-(2-Amino-2-oxoethyl)-3-cyclopropyl-1-(5-(2-fluoro-5-(1-hydroxyethyl)phenyl)pyrimidin-2-yl)-N-methyl-1H-indazole-6-carboxamide]
- inhibition at 10 µM [2]: 101%
- melting point: 248 to 252 °C

Compound: CC(C)(O)c1ccc(F)c(-c2cnc(-n3nc(C4CC4)c4ccc(C(=O)N5CCOCC5)cc43)nc2)c1 [Compound No. 54, (3-Cyclopropyl-1-(5-(2-fluoro-5-(2-hydroxypropan-2-yl)phenyl)pyrimidin-2-yl)-1H-indazol-6-yl)(morpholino)methanone]
- inhibition at 10 µM [2]: 107%
- melting point: 211 to 215 °C

Compound: CN(CC(N)=O)C(=O)c1ccc2c(C3CC3)nn(-c3ncc(-c4cc(C(C)(C)O)ccc4F)cn3)c2c1 [Compound No. 55, N-(2-Amino-2-oxoethyl)-3-cyclopropyl-1-(5-(2-fluoro-5-(2-hydroxypropan-2-yl)phenyl)pyrimidin-2-yl)-N-methyl-1H-indazole-6-carboxamide]
- inhibition at 10 µM [2]: 115%
- melting point: 177 to 180 °C

Compound: C[S+]([O-])c1ccc(F)c(-c2cnc(-n3nc(C4CC4)c4ccc(C(=O)N5CCOCC5)cc43)nc2)c1 (stereo not drawn) [Compound No. 56, (3-Cyclopropyl-1-(5-(2-fluoro-5-(methylsulfinyl)phenyl)pyrimidin-2-yl)-1H-indazol-6-yl)(morpholino)methanone]
- inhibition at 10 µM [2]: 106%
- melting point: 243 to 247 °C

Compound: CN(CC(N)=O)C(=O)c1ccc2c(C3CC3)nn(-c3ncc(-c4cc([S+](C)[O-])ccc4F)cn3)c2c1 (stereo not drawn) [Compound No. 57]
- inhibition at 10 µM [2]: 120%
- melting point: 274 to 277 °C

Compound: CS(=O)(=O)c1ccc(F)c(-c2cnc(-n3nc(C4CC4)c4ccc(C(=O)N5CCOCC5)cc43)nc2)c1 [Compound No. 58, (3-Cyclopropyl-1-(5-(2-fluoro-5-(methylsulfonyl)phenyl)pyrimidin-2-yl)-1H-indazol-6-yl)(morpholino)methanone]
- inhibition at 10 µM [2]: 105%
- melting point: 276 to 280 °C

Compound: CN(CC(N)=O)C(=O)c1ccc2c(C3CC3)nn(-c3ncc(-c4cc(S(C)(=O)=O)ccc4F)cn3)c2c1 [Compound No. 59, N-(2-Amino-2-oxoethyl)-3-cyclopropyl-1-(5-(2-fluoro-5-(methylsulfonyl)phenyl)pyrimidin-2-yl)-N-methyl-1H-indazole-6-carboxamide]
- inhibition at 10 µM [2]: 96%
- melting point: 311 to 315 °C

Compound: CCOc1ccc(F)c(-c2cnc(-n3nc(C)c4ccc(C(=O)N(C)CC(N)=O)cc43)nc2)c1 [Compound No. 60, N-(2-Amino-2-oxoethyl)-1-(5-(5-ethoxy-2-fluorophenyl)pyrimidin-2-yl)-N,3-dimethyl-1H-indazole-6-carboxamide]
- inhibition at 10 µM [2]: 100%
- melting point: 254 to 257 °C

Compound: Cc1nn(-c2ncc(-c3cc(C(C)O)ccc3F)cn2)c2cc(C(=O)N(C)CC(N)=O)ccc12 (stereo not drawn) [Compound No. 61, N-(2-Amino-2-oxoethyl)-1-(5-(2-fluoro-5-(1-hydroxyethyl)phenyl)pyrimidin-2-yl)-N,3-dimethyl-1H-indazole-6-carboxamide]
- inhibition at 10 µM [2]: 103%
- melting point: 191 to 195 °C

Compound: Cc1nn(-c2ncc(-c3cc(C(C)(C)O)ccc3F)cn2)c2cc(C(=O)N(C)CC(N)=O)ccc12 [Compound No. 62, N-(2-Amino-2-oxoethyl)-1-(5-(2-fluoro-5-(2-hydroxypropan-2-yl)phenyl)pyrimidin-2-yl)-N,3-dimethyl-1H-indazole-6-carboxamide]
- inhibition at 10 µM [2]: 108%
- melting point: 187 to 190 °C

Compound: CCOc1ccc(F)c(-c2cnc(-n3nc(C(C)O)c4ccc(C(=O)N5CCOCC5)cc43)nc2)c1 (stereo not drawn) [Compound No. 74, (1-(5-(5-Ethoxy-2-fluorophenyl)pyrimidin-2-yl)-3-(1-hydroxyethyl)-1H-indazol-6-yl)(morpholino)methanone]
- inhibition at 10 µM [2]: 102%

Compound: CC(O)c1nn(-c2ncc(-c3cccc(C4CC4)c3)cn2)c2cc(C(=O)N3CCOCC3)ccc12 (stereo not drawn) [Compound No. 76, (1-(5-(3-Cyclopropylphenyl)pyrimidin-2-yl)-3-(1-hydroxyethyl)-1H-indazol-6-yl)(morpholino)methanone]
- inhibition at 10 µM [2]: 102%
